Measurements reported in patent US9079974B2, “GH-RH analogs with potent agonistic effects” (The University of Miami, priority 2011, dated 2015).
“Also recorded” adds a separate entry of the source. Square brackets hold non-standard residues; d marks the D form. Peptide text beside a SMILES is read from it. * marks the point of attachment. Phe(F5) = N[C@@H](Cc1c(F)c(F)c(F)c(F)c1F)C(=O)O; Desaminotyrosyl = O=C(CCc1ccc(O)cc1)*; NMeY = CN[C@@H](Cc1ccc(O)cc1)C(=O)O; hArg = N=C(N)NCCCC[C@H](N)C(=O)O; Nle = CCCC[C@H](N)C(=O)O; Orn = NCCC[C@H](N)C(=O)O; Abu = CC[C@H](N)C(=O)O; GABA = NCCCC(=O)O

What was measured:
GHRH receptor [1] = target: T1, GHRH receptor (Homo sapiens, UniProt Q02643); test: GHRH receptor binding, [His1,125I-Tyr10,Nle27]hGHRH(1-32)NH2 ligand competition, human pituitary membrane homogenates (Table 6); details: for IC50: [His1,125I-Tyr10,Nle27]hGHRH(1-32)NH2, human pituitary membranes
T1 construct: Normal human pituitaries were purchased from the National Hormone and Peptide Program; tissue National Hormone and Peptide Program (A. F. Parlow); host or cells: normal human pituitary, membrane fraction
T1 sequence (Q02643 23-423): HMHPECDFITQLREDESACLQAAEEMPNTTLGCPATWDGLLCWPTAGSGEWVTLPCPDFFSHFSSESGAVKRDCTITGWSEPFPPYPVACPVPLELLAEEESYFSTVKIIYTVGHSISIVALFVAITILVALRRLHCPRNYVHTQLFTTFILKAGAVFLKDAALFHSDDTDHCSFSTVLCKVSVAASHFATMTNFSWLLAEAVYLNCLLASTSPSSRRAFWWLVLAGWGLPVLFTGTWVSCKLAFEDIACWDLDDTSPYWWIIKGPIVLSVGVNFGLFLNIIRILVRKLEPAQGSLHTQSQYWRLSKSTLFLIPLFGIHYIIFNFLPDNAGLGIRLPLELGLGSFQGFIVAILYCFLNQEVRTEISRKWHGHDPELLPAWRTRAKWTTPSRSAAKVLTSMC
Description: (§1) Receptor binding assay Ligand competition assay with ^125I-labeled [His^1, Nle^27]hGH-RH(1-32)-NH2 was used to determine the binding affinities of the novel hGH-RH agonists to membrane receptors of rat anterior pituitary cells. The methods used have been described in detail (Halmos G, et al. Receptor 3: 87-97, 1993), here by incorporated by reference. Briefly, radioidonated [His^1, Nle^27]hGH-RH(1-32)-NH2 is prepared by the chloramines-T method. […] IC50 is the dose of the tested peptides causing 50% inhibition of specific binding to receptors.
(§2) Preparation of human pituitary membrane fraction and receptor binding of GHRH agonists were performed as previously described, by using a sensitive in vitro ligand competition assay based on binding of ^125I-labeled [His^1, Nle^27]hGHRH(1-32)NH2 to human pituitary membrane homogenates. Normal human pituitaries were purchased from the National Hormone and Peptide Program (A. F. Parlow, Los Angeles, County Harbor—UCLA Medical Center, Torrance, Calif.).

GHRH receptor [2] = target: T1, GHRH receptor; test: GHRH receptor binding, 125I-labeled JV-1-42 ligand competition, human pituitary membrane homogenates (Table 7); details: 125I-labeled JV-1-42, human pituitary membranes
Description: as §2, with “JV-1-42” for “[His^1, Nle^27]hGHRH(1-32)NH2”, “Harbor-UCLA” for “Harbor—UCLA”

GHRH receptor [3] = target: T1, GHRH receptor; test: GHRH receptor binding, 125I-labeled JV-1-42 ligand competition, human pituitary membrane homogenates (Table 5)
Description: as §1
as §2, with “JV-1-42” for “[His^1, Nle^27]hGHRH(1-32)NH2”, “Harbor-UCLA” for “Harbor—UCLA”, “Calif.). Briefly, in competitive binding analysis, ^125I-labeled JV-1-42 (˜0.2 nM) was displaced by GHRH agonists at 10^−6 to 10^−12 M.” for “Calif.).”
The final binding affinities were expressed as IC50 values and were calculated by using the LIGAND PC computerized curve-fitting program of Munson and Rodbard as modified by McPherson.

GH release [4] = test: In vivo GH release after subcutaneous administration; details: rat, s.c.
Description: Blood samples are taken from the jugular vein; 5, 15 and 30 minutes or only 15 and 30 minutes after the injection. The blood samples are centrifuged, plasma is removed and the GH level is measured by ELISA. The results are summarized in terms of potency in Table 9.

GH release [5] = test: In vivo GH release after intravenous administration; details: rat, i.v.
Description: The blood samples are centrifuged, plasma is removed and the GH level is measured by ELISA.

[6] = given subcutaneously twice a day; cited from earlier work
[7] = target: dipeptidylpeptidase IV (DPP-IV) (Homo sapiens, UniProt P27487); details: cited from earlier work
Sequence of dipeptidylpeptidase IV (DPP-IV) (P27487 39-766 limits assumed, species assumed): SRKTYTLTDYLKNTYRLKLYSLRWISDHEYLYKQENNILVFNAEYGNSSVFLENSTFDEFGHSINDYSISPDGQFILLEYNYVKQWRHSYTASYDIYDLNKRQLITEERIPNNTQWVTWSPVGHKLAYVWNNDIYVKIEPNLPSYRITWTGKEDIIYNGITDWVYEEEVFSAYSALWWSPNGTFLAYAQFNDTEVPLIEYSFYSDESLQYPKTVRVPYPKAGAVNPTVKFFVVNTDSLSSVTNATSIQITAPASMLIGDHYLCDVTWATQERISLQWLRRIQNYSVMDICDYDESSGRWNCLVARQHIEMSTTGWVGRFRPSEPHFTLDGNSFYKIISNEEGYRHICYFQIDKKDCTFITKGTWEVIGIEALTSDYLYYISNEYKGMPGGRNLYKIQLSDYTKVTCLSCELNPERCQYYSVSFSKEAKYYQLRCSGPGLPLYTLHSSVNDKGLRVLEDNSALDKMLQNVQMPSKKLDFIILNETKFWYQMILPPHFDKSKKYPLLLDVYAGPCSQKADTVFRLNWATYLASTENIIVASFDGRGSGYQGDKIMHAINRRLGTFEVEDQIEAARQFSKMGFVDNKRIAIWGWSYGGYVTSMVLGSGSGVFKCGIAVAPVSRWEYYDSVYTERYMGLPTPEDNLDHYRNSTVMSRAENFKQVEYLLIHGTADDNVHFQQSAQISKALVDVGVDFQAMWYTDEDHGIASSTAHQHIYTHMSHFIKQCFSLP

Compound | IC50 (GHRH receptor [1]) | IC50 (GHRH receptor [2]) | GH response after subcutaneous administration (in words) (GH release [4]) | GH response after intravenous administration (in words) (GH release [5]) | other results
CCCC[C@H](NC(=O)[C@@H](NC(=O)[C@H](CC(=O)O)NC(=O)[C@H](CCC(N)=O)NC(=O)[C@H](CC(C)C)NC(=O)[C@H](CC(C)C)NC(=O)[C@H](CCCN)NC(=O)[C@H](CCCNC(=N)N)NC(=O)[C@H](C)NC(=O)[C@H](CO)NC(=O)[C@H](CC(C)C)NC(=O)[C@H](CCC(N)=O)NC(=O)[C@H](CC)NC(=O)[C@H](CC(C)C)NC(=O)[C@@H](NC(=O)[C@H](CCCN)NC(=O)[C@H](CCCNC(=N)N)NC(=O)[C@H](Cc1ccc(O)cc1)NC(=O)[C@H](CO)NC(=O)[C@@H](NC(=O)[C@@H](NC(=O)[C@H](Cc1ccccc1)NC(=O)[C@@H](NC(=O)[C@H](C)NC(=O)[C@H](CC(=O)O)NC(=O)[C@@H](C)NC(=O)CCc1ccc(O)cc1)[C@@H](C)CC)[C@@H](C)O)[C@@H](C)O)C(C)C)[C@@H](C)CC)C(=O)N[C@@H](CC(=O)O)C(=O)N[C@@H](CCCNC(=N)N)C(=O)N[C@@H](CCCCNC(=N)N)C(N)=O [Peptide P-23254, [Dat^1, D-Ala^2, Thr^8, Orn^12, Abu^15, Orn^21, Nle^27, Asp^28, Har^30]hGH-RH(1-30)NH2] (Desaminotyrosyl-[dA]DAIFTTSYR[Orn]VL[Abu]QLSAR[Orn]LLQDI[Nle]DR[hArg]-NH2) | 70 pM | – | – | – | –
CCCC[C@H](NC(=O)[C@@H](NC(=O)[C@H](CC(=O)O)NC(=O)[C@H](CCC(N)=O)NC(=O)[C@H](CC(C)C)NC(=O)[C@H](CC(C)C)NC(=O)[C@H](CCCN)NC(=O)[C@H](CCCNC(=N)N)NC(=O)[C@H](C)NC(=O)[C@H](CO)NC(=O)[C@H](CC(C)C)NC(=O)[C@H](CCC(N)=O)NC(=O)[C@H](CC)NC(=O)[C@H](CC(C)C)NC(=O)[C@@H](NC(=O)[C@H](CCCN)NC(=O)[C@H](CCCNC(=N)N)NC(=O)[C@H](Cc1ccc(O)cc1)NC(=O)[C@H](CO)NC(=O)[C@H](C)NC(=O)[C@@H](NC(=O)[C@H](Cc1ccccc1)NC(=O)[C@@H](NC(=O)[C@H](C)NC(=O)[C@H](CC(=O)O)NC(=O)[C@@H](C)NC(=O)CCc1ccc(O)cc1)[C@@H](C)CC)[C@@H](C)O)C(C)C)[C@@H](C)CC)C(=O)N[C@@H](CC(=O)O)C(=O)N[C@@H](CCCNC(=N)N)C(=O)N[C@@H](CCCCNC(=N)N)C(N)=O [Peptide P-23256, [Dat^1, D-Ala^2, Ala^8, Orn^12, Abu^15, Orn^21, Nle^27, Asp^28, Har^30]hGH-RH(1-30)NH2] (Desaminotyrosyl-[dA]DAIFTASYR[Orn]VL[Abu]QLSAR[Orn]LLQDI[Nle]DR[hArg]-NH2) | 40 pM | – | – | – | –
CCCC[C@H](NC(=O)[C@@H](NC(=O)[C@H](CC(=O)O)NC(=O)[C@H](CCC(N)=O)NC(=O)[C@H](CC(C)C)NC(=O)[C@H](CC(C)C)NC(=O)[C@H](CCCN)NC(=O)[C@H](CCCNC(=N)N)NC(=O)[C@H](C)NC(=O)[C@H](CO)NC(=O)[C@H](CC(C)C)NC(=O)[C@H](CCC(N)=O)NC(=O)[C@H](CC)NC(=O)[C@H](CC(C)C)NC(=O)[C@@H](NC(=O)[C@H](CCCN)NC(=O)[C@H](CCCNC(=N)N)NC(=O)[C@H](Cc1ccc(O)cc1)NC(=O)[C@H](CO)NC(=O)[C@H](CC(N)=O)NC(=O)[C@@H](NC(=O)[C@H](Cc1c(F)c(F)c(F)c(F)c1F)NC(=O)[C@@H](NC(=O)[C@H](C)NC(=O)[C@H](CC(=O)O)NC(=O)[C@@H](C)NC(=O)CCc1ccc(O)cc1)[C@@H](C)CC)[C@@H](C)O)C(C)C)[C@@H](C)CC)C(=O)N[C@@H](CO)C(=O)N[C@@H](CCCNC(=N)N)C(=O)NCCCC(N)=O [Peptide P-25502, [Dat^1, D-Ala^2, Fpa5^6, Orn^12, Abu^15, Orn^21, Nle^27, Gab^30]hGH-RH(1-30)NH2] (Desaminotyrosyl-[dA]DAI[Phe(F5)]TNSYR[Orn]VL[Abu]QLSAR[Orn]LLQDI[Nle]SR[GABA]-NH2) | – | 330 pM | unusually high responses; also recorded: especially greater growth hormone levels than hGH-RH or JI-38 | most potent | IC50 (GHRH receptor [3]; 125I-labeled JV-1-42, human pituitary membranes): 70 pM
CCCC[C@H](NC(=O)[C@@H](NC(=O)[C@H](CC(=O)O)NC(=O)[C@H](CCC(N)=O)NC(=O)[C@H](CC(C)C)NC(=O)[C@H](CC(C)C)NC(=O)[C@H](CCCN)NC(=O)[C@H](CCCNC(=N)N)NC(=O)[C@H](C)NC(=O)[C@H](CO)NC(=O)[C@H](CC(C)C)NC(=O)[C@H](CCC(N)=O)NC(=O)[C@H](CC)NC(=O)[C@H](CC(C)C)NC(=O)[C@@H](NC(=O)[C@H](CCCN)NC(=O)[C@H](CCCNC(=N)N)NC(=O)[C@H](Cc1ccc(O)cc1)NC(=O)[C@H](CO)NC(=O)[C@H](CCC(N)=O)NC(=O)[C@@H](NC(=O)[C@H](Cc1ccccc1)NC(=O)[C@@H](NC(=O)[C@H](C)NC(=O)[C@H](CC(=O)O)NC(=O)[C@@H](C)NC(=O)[C@H](Cc1ccc(O)cc1)NC)[C@@H](C)CC)[C@@H](C)O)C(C)C)[C@@H](C)CC)C(=O)N[C@@H](CC(=O)O)C(=O)N[C@@H](CCCNC(=N)N)C(=O)NC [Peptide P-27403, [N—Me-Tyr^1, D-Ala^2, Gln^8, Orn^12, Abu^15, Orn^21, Nle^27, Asp^28]hGH-RH(1-29)NH—CH3] (H-[NMeY][dA]DAIFTQSYR[Orn]VL[Abu]QLSAR[Orn]LLQDI[Nle]DR-NHMe) | – | 160 pM | unusually high responses; also recorded: especially greater growth hormone levels than hGH-RH or JI-38 | most potent | –
hGH-RH(1-29)NH2 [GHRH (1-29), reference compound] | – | – | – | – | share of GH-deficient children in whom linear growth was promoted [6]: approximately 50%; Relative affinity (Binding potency) vs GHRH (GHRH receptor [3]; relative to GHRH(1-29) = 1): 1; Relative affinity (Binding potency) vs GHRH (GHRH receptor [1]; relative to GHRH(1-29) = 1): 1
hGH-RH: native human GH-RH, 44 amino acids with an amidated carboxyl terminus | – | – | – | – | degradation in plasma via DPP-IV cleavage between residues 2 and 3 [7]: rapidly degraded
